Experimental findings from patent publication US11981686B2, “Urea compound having substituent” (DAIICHI SANKYO COMPANY, LIMITED, priority 2019, dated 2024) are described below.

In the assay the target is SIRT6 enzyme (Homo sapiens, UniProt Q8N6T7). Kind of assay: Measurement of deacetylation activity (SIRT6, AlphaLISA, H3K9(Ac) peptide). It is filed as biochemical. The note with it: SIRT6 25 ng/mL, H3K9(Ac) biotin peptide 2 nM, NAD 10 μM, room temperature 30 minutes, duplicate. Summed up: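 Activation read as EC150, the concentration giving 150% activity relative to enzyme/no-enzyme DMSO controls, via variable-slope fit. Deacetylation of 2 nM biotinylated H3K9(Ac) peptide with 10 μM NAD+ by 25 ng/mL SIRT6 ran 30 min at room temperature, pH 8.0, then AlphaLISA detection of unmodified H3K9.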
Sequence of SIRT6 enzyme (Q8N6T7 whole entry, species assumed): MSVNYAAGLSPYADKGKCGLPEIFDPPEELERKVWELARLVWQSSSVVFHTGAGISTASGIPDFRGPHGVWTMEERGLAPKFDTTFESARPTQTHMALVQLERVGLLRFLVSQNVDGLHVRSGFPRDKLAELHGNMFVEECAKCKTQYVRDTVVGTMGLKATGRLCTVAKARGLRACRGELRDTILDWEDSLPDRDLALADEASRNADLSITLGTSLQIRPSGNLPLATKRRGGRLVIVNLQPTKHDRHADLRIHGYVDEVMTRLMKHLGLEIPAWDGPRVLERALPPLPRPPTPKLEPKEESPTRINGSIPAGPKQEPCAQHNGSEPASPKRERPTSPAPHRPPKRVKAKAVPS
(In Alpha technology, singlet oxygen from a donor bead excites a nearby acceptor bead.)
Turning to `COc1cccc(-c2cc(N3[C@@H]4COC[C@H]3c3sc(NC(=O)N[C@@H]5CCOC5)nc3C4)no2)c1` [Example 164, N-{(4S,8S)-10-[5-(3-methoxyphenyl)-1,2-oxazol-3-yl]-4,7,8,9-tetrahydro-5H-4,8-epiminooxocino[5,4-d][1,3]thiazol-2-yl}-N′-[(3R)-oxolan-3-yl]urea], the “EC150 (the concentration of the compound showing a relative enzyme activity of 150%)” value is listed as 2.6 μm. As for `O=C(Nc1nc2c(s1)CN(c1nc(C3CCC(F)(F)CC3)no1)CC2)N[C@@H]1CCC[C@H]1O` [Example 25, N-{5-[3-(4,4-difluorocyclohexyl)-1,2,4-oxadiazol-5-yl]-4,5,6,7-tetrahydro[1,3]thiazolo[5,4-c]pyridin-2-yl}-N′-[(1R,2R)-2-hydroxycyclopentyl]urea], the “EC150 (the concentration of the compound showing a relative enzyme activity of 150%)” value came out at 0.81 μm.

Consider `[2H]C([2H])([2H])Oc1ccc2oc(N3[C@@H]4COC[C@H]3c3sc(NC(=O)NCC(C)(C)O)nc3C4)nc2c1` [Example 60, N-(2-hydroxy-2-methylpropyl)-N′-[(4S,8S)-10-{5-[(^2H3)methyloxy]-1,3-benzoxazol-2-yl}-4,7,8,9-tetrahydro-5H-4,8-epiminooxocino[5,4-d][1,3]thiazol-2-yl]urea], for which the “EC150 (the concentration of the compound showing a relative enzyme activity of 150%)” value turned out to be 1.7 μm.

Regarding `COCCCNC(=O)Nc1nc2c(s1)CN(c1nc(C3CCC(F)(F)CC3)no1)CC2` [Example 27, N-{5-[3-(4,4-difluorocyclohexyl)-1,2,4-oxadiazol-5-yl]-4,5,6,7-tetrahydro[1,3]thiazolo[5,4-c]pyridin-2-yl}-N′-(3-methoxypropyl)urea], the “EC150 (the concentration of the compound showing a relative enzyme activity of 150%)” value was found to be 2.1 μm. In the case of `COc1cc2nc(N3[C@@H]4COC[C@H]3c3sc(NC(=O)NCC(C)(C)O)nc3C4)oc2cc1C` [Example 44, N-(2-hydroxy-2-methylpropyl)-N′-[(4S,8S)-10-(5-methoxy-6-methyl-1,3-benzoxazol-2-yl)-4,7,8,9-tetrahydro-5H-4,8-epiminooxocino[5,4-d][1,3]thiazol-2-yl]urea], the “EC150 (the concentration of the compound showing a relative enzyme activity of 150%)” value is reported as 2.3 μm.

Turning to `C[C@H](CO)NC(=O)Nc1nc2c(s1)[C@@H]1COC[C@H](C2)N1c1cc(-c2cccc(C(F)F)c2)on1` [Example 156, N-[(4S,8S)-10-{5-[3-(difluoromethyl)phenyl]-1,2-oxazol-3-yl}-4,7,8,9-tetrahydro-5H-4,8-epiminooxocino[5,4-d][1,3]thiazol-2-yl]-N′-[(2R)-1-hydroxypropan-2-yl]urea], the “EC150 (the concentration of the compound showing a relative enzyme activity of 150%)” value is 1 μm.

As for `C[C@@H](O)CNC(=O)Nc1nc2c(s1)[C@@H]1COC[C@H](C2)N1c1cc(-c2ccc(F)cc2)on1` [Example 65, N-{(4S,8S)-10-[5-(4-fluorophenyl)-1,2-oxazol-3-yl]-4,7,8,9-tetrahydro-5H-4,8-epiminooxocino[5,4-d][1,3]thiazol-2-yl}-N′-[(2R)-2-hydroxypropyl]urea], the “EC150 (the concentration of the compound showing a relative enzyme activity of 150%)” value is given as 2.1 μm. As to `C[C@H](CO)NC(=O)Nc1nc2c(s1)[C@@H]1COC[C@H](C2)N1c1ncc(-c2cccc(OC(F)F)n2)o1` [Example 66, N-[(4S,8S)-10-{5-[6-(difluoromethoxy)pyridin-2-yl]-1,3-oxazol-2-yl}-4,7,8,9-tetrahydro-5H-4,8-epiminooxocino[5,4-d][1,3]thiazol-2-yl]-N′-[(2R)-1-hydroxypropan-2-yl]urea], the “EC150 (the concentration of the compound showing a relative enzyme activity of 150%)” value was determined as 0.39 μm. As for `CN(C)c1ccc2oc(N3[C@@H]4COC[C@H]3c3sc(NC(=O)NCC(C)(C)O)nc3C4)nc2c1` [Example 41, N-{(4S,8S)-10-[5-(dimethylamino)-1,3-benzoxazol-2-yl]-4,7,8,9-tetrahydro-5H-4,8-epiminooxocino[5,4-d][1,3]thiazol-2-yl}-N′-(2-hydroxy-2-methylpropyl)urea], the “EC150 (the concentration of the compound showing a relative enzyme activity of 150%)” value was 2.5 μm. With `CNC(=O)Nc1nc2c(s1)C1CN(C(C)=O)CC(C2)N1c1nc(-c2ccc(F)cc2)no1` (centres unmarked) [Example 19, N-{6-acetyl-10-[3-(4-fluorophenyl)-1,2,4-oxadiazol-5-yl]-4,5,6,7,8,9-hexahydro-4,8-epimino[1,3]thiazolo[5,4-d]azocin-2-yl}-N′-methylurea], the “EC150 (the concentration of the compound showing a relative enzyme activity of 150%)” value worked out at 0.60 μm. The same measure for `CNC(=O)Nc1nc2c(s1)C1CCC(C2)N1c1cc(-c2ccc(F)cc2)on1` (centres unmarked) [Example 11, N-{9-[5-(4-fluorophenyl)-1,2-oxazol-3-yl]-5,6,7,8-tetrahydro-4H-5,8-epiminocyclohepta[d][1,3]thiazol-2-yl}-N′-methylurea]: 4.3 μm. Consider `CCOc1cccc(-c2cnc(N3[C@@H]4COC[C@H]3c3sc(NC(=O)NCC(C)(C)O)nc3C4)o2)n1` [Example 79, N-{(4S,8S)-10-[5-(6-ethoxypyridin-2-yl)-1,3-oxazol-2-yl]-4,7,8,9-tetrahydro-5H-4,8-epiminooxocino[5,4-d][1,3]thiazol-2-yl}-N′-(2-hydroxy-2-methylpropyl)urea], for which the “EC150 (the concentration of the compound showing a relative enzyme activity of 150%)” value is 1.2 μm. For the compound `CNC(=O)Nc1nc2c(s1)C1CN(C(=O)OC)CC(C2)N1c1cc(-c2ccc(F)cc2)on1` (centres unmarked) [Example 64, Methyl 10-[5-(4-fluorophenyl)-1,2-oxazol-3-yl]-2-[(methylcarbamoyl)amino]-4,7,8,9-tetrahydro-4,8-epimino[1,3]thiazolo[5,4-d]azocine-6(5H)-carboxylate], the “EC150 (the concentration of the compound showing a relative enzyme activity of 150%)” value was determined as 0.49 μm. For the compound `O=C(Nc1nc2c(s1)[C@@H]1COC[C@H](C2)N1c1cc(-c2ccc(F)cc2)on1)NC1CCOCC1` [Example 161, N-{(4S,8S)-10-[5-(4-fluorophenyl)-1,2-oxazol-3-yl]-4,7,8,9-tetrahydro-5H-4,8-epiminooxocino[5,4-d][1,3]thiazol-2-yl}-N′-oxan-4-ylurea], the “EC150 (the concentration of the compound showing a relative enzyme activity of 150%)” value came out at 0.97 μm. As for `COc1cccc(-c2cnc(N3[C@@H]4COC[C@H]3c3sc(NC(=O)N[C@@H]5CCOC5)nc3C4)o2)n1` [Example 185, N-{(4S,8S)-10-[5-(6-methoxypyridin-2-yl)-1,3-oxazol-2-yl]-4,7,8,9-tetrahydro-5H-4,8-epiminooxocino[5,4-d][1,3]thiazol-2-yl}-N′-[(3R)-oxolan-3-yl]urea], the “EC150 (the concentration of the compound showing a relative enzyme activity of 150%)” value came to 0.4 μm.

On to `COCCNC(=O)Nc1nc2c(s1)CN(c1nc(C3CC(F)(F)CCO3)no1)CC2` (centres unmarked) [Example 98, N-{5-[3-(4,4-difluorooxan-2-yl)-1,2,4-oxadiazol-5-yl]-4,5,6,7-tetrahydro[1,3]thiazolo[5,4-c]pyridin-2-yl}-N′-(2-methoxyethyl)urea], for which the “EC150 (the concentration of the compound showing a relative enzyme activity of 150%)” value was 2.6 μm. The same measure for `COc1ccc2oc(N3[C@@H]4COC[C@H]3c3sc(NC(=O)N[C@@H]5CCOC5)nc3C4)nc2c1` [Example 47, N-[(4S,8S)-10-(5-methoxy-1,3-benzoxazol-2-yl)-4,7,8,9-tetrahydro-5H-4,8-epiminooxocino[5,4-d][1,3]thiazol-2-yl]-N′-[(3R)-oxolan-3-yl]urea]: 0.83 μm. Take `O=C(Nc1nc2c(s1)[C@@H]1COC[C@H](C2)N1c1ncc(-c2cccc(OC(F)F)n2)o1)N[C@@H]1COC[C@H]1O` [Example 175, N-[(4S,8S)-10-{5-[6-(difluoromethoxy)pyridin-2-yl]-1,3-oxazol-2-yl}-4,7,8,9-tetrahydro-5H-4,8-epiminooxocino[5,4-d][1,3]thiazol-2-yl]-N′-[(3R,4S)-4-hydroxyoxolan-3-yl]urea]: the “EC150 (the concentration of the compound showing a relative enzyme activity of 150%)” value was 0.27 μm. As for `CNC(=O)Nc1nc2c(s1)C1COCC(C2)N1c1ncc(-c2cccc(C(=O)C3CC3)c2F)o1` (centres unmarked) [Example 116, N-(10-{5-[3-(cyclopropanecarbonyl)-2-fluorophenyl]-1,3-oxazol-2-yl}-4,7,8,9-tetrahydro-5H-4,8-epiminooxocino[5,4-d][1,3]thiazol-2-yl)-N′-methylurea], the “EC150 (the concentration of the compound showing a relative enzyme activity of 150%)” value came out at 3.1 μm.

Consider `O=C(Nc1nc2c(s1)[C@@H]1COC[C@H](C2)N1c1nc(-c2ccc(F)cc2)no1)N[C@H]1C[C@H](O)C1` [Example 86, N-{(4S,8S)-10-[3-(4-fluorophenyl)-1,2,4-oxadiazol-5-yl]-4,7,8,9-tetrahydro-5H-4,8-epiminooxocino[5,4-d][1,3]thiazol-2-yl}-N′-[(1r,3S)-3-hydroxycyclobutyl]urea], for which the “EC150 (the concentration of the compound showing a relative enzyme activity of 150%)” value is recorded as 0.25 μm. For the compound `C[C@H](CO)NC(=O)Nc1nc2c(s1)[C@@H]1COC[C@H](C2)N1c1nc2cc(F)cc(F)c2o1` [Example 147, N-[(4S,8S)-10-(5,7-difluoro-1,3-benzoxazol-2-yl)-4,7,8,9-tetrahydro-5H-4,8-epiminooxocino[5,4-d][1,3]thiazol-2-yl]-N′-[(2R)-1-hydroxypropan-2-yl]urea], the “EC150 (the concentration of the compound showing a relative enzyme activity of 150%)” value worked out at 3.3 μm.

As for `CNC(=O)Nc1nc2c(s1)C1CN(C(C)=O)CC(C2)N1c1ncc(-c2cccc(OC(F)F)n2)o1` (centres unmarked) [Example 128, N-(6-acetyl-10-{5-[6-(difluoromethoxy)pyridin-2-yl]-1,3-oxazol-2-yl}-4,5,6,7,8,9-hexahydro-4,8-epimino[1,3]thiazolo[5,4-d]azocin-2-yl)-N′-methylurea], the “EC150 (the concentration of the compound showing a relative enzyme activity of 150%)” value was 0.43 μm. `Cc1cc2nc(N3[C@@H]4COC[C@H]3c3sc(NC(=O)NCC(C)(C)O)nc3C4)oc2cc1C#N` [Example 51, N-[(4S,8S)-10-(6-cyano-5-methyl-1,3-benzoxazol-2-yl)-4,7,8,9-tetrahydro-5H-4,8-epiminooxocino[5,4-d][1,3]thiazol-2-yl]-N′-(2-hydroxy-2-methylpropyl)urea]: the “EC150 (the concentration of the compound showing a relative enzyme activity of 150%)” value was 0.47 μm.
